Assay results reported in patent publication US7662412B2, “Traditional Chinese medicine composition to treat rheumatoid arthritis and preparation method thereof” (priority 2005, dated 2010).

Assays:
interleukin-1 (IL-1) = assay: IL-1 activity of LPS-induced peritoneal macrophages of adjuvant arthritis rats (thymocyte bioassay); format: in vivo, rat; settings: AA rats, 5 mg; 570 nm; model group 0.87 ± 0.03
Protocol: Fizzer complete adjuvant (from Sigma Co.) was emulsified and injected subcutaneously and sterilely 0.1 ml into the right meta voix pedis of each rat (♂, 160±20 g) to establish a model of adjuvant-induced arthritis.
Preparation of peritoneal macrophage: Execute rats at 25th days after injecting complete adjuvant, then rapidly inject proper amount of Hank's solution into the belly of them, and rub their abdominal wall several times before collecting peritoneal fluid. Wash it with Hank's solution containing 5% calf serum twice, then prepare 1×10^6/mL cell suspension with wholly swelling RPMI1640. Transfer into a culture plate with 24 wells, 1 ml each well. Incubate them in a 5% CO2 incubator overnight at a temperature of 37° C., abandon the supernatant fluid, wash with pre-warmed Hank's solution containing 5% calf serum at 37° C. twice, and remove un-adherent cell. The residue was peritoneal macrophage.
2. IL-1 induction: Add 10 μg/mL lipopolysaccharide (LPS) to the above culture plate with 24 wells, then incubate for 24 hours, centrifuge (2000 rpm, 5 min), collect the […], and filter with micropore filter. This solution was the IL-1 sample to be detected. 3. […]

[1] = test system: DTH T cell subsets (L3T4+, Lyt-2+); assay: DTH T cell subsets of mouse (DNFB, splenic lymphocytes, immunofluorescence); settings: 5 mg

In the case of `C[C@]12C=CC(=O)C=C1CC[C@@H]1[C@@H]2C(=O)C[C@@]2(C)[C@H]1CC[C@]2(O)C(=O)CO` [Prednisone], the “OD Value (IL-1 activity)” value (interleukin-1 (IL-1)) is reported as 0.34 ± 0.02, the “Cells number L3T4^+” value [1] is reported as 59.6 ± 7.5% and the “Cells number Lyt-2^+” value [1] is reported as 56.2 ± 3.8 %. The “L3T4^+/Lyt-2^+” value [1] was 1.21 ± 0.14.
